Results reported in PMC3688284 (ACS chemical biology, 2011).
One block for each compound: values may come before it.

Assays:
human cortical neurons = assay: AlamarBlue cytotoxicity assay in primary human cortical neurons; format: cell-based; details: for Concentration at which overt cytotoxicity was seen: human cortical neurons
[1] = molecular target: recombinant human wild type LRRK2 (Homo sapiens, UniProt Q5S007); assay: TR-FRET-based kinase activity assay, wild type LRRK2; format: biochemical; details: read-out: IC50, human wild type LRRK2 activity, ATP 100 μM
G2019S LRRK2 = G2019S LRRK2 (Homo sapiens, UniProt Q5S007, G2019S); assay: TR-FRET-based kinase activity assay, G2019S LRRK2; format: biochemical; details: read-out: IC50, G2019S LRRK2 activity, ATP 100 μM
Pharmacokinetics studies = details: in vivo
[2] = system: LRRK2 G2019S-transfected human cortical neurons; assay: Neurite morphology assay in primary human cortical neurons; details: for EC50: read-out: EC50, attenuation of G2019S LRRK2-induced human neuronal injury
[3] = system: rat primary cortical neurons transfected with LRRK2 R1441C; format: cell-based; details: at higher concentrations
[4] = system: rat primary cortical neurons transfected with LRRK2 G2019S; format: cell-based
[5] = molecular target: mouse LRRK2 (mouse kidney lysate) (Mus musculus, UniProt Q5S006); assay: Competition-binding assay with la-S7 matrix; details: concentrations as high as 100 μM tested; 5 mg/mL protein
[6] = molecular target: LRRK2 (human K562 extracts) (Homo sapiens, UniProt Q5S007); assay: la-S7 binding assay in human K562 extracts; details: concentrations as high as 100 μM tested; 5 mg/mL protein
Chain of LRRK2 (human K562 extracts) (Q5S007 whole entry): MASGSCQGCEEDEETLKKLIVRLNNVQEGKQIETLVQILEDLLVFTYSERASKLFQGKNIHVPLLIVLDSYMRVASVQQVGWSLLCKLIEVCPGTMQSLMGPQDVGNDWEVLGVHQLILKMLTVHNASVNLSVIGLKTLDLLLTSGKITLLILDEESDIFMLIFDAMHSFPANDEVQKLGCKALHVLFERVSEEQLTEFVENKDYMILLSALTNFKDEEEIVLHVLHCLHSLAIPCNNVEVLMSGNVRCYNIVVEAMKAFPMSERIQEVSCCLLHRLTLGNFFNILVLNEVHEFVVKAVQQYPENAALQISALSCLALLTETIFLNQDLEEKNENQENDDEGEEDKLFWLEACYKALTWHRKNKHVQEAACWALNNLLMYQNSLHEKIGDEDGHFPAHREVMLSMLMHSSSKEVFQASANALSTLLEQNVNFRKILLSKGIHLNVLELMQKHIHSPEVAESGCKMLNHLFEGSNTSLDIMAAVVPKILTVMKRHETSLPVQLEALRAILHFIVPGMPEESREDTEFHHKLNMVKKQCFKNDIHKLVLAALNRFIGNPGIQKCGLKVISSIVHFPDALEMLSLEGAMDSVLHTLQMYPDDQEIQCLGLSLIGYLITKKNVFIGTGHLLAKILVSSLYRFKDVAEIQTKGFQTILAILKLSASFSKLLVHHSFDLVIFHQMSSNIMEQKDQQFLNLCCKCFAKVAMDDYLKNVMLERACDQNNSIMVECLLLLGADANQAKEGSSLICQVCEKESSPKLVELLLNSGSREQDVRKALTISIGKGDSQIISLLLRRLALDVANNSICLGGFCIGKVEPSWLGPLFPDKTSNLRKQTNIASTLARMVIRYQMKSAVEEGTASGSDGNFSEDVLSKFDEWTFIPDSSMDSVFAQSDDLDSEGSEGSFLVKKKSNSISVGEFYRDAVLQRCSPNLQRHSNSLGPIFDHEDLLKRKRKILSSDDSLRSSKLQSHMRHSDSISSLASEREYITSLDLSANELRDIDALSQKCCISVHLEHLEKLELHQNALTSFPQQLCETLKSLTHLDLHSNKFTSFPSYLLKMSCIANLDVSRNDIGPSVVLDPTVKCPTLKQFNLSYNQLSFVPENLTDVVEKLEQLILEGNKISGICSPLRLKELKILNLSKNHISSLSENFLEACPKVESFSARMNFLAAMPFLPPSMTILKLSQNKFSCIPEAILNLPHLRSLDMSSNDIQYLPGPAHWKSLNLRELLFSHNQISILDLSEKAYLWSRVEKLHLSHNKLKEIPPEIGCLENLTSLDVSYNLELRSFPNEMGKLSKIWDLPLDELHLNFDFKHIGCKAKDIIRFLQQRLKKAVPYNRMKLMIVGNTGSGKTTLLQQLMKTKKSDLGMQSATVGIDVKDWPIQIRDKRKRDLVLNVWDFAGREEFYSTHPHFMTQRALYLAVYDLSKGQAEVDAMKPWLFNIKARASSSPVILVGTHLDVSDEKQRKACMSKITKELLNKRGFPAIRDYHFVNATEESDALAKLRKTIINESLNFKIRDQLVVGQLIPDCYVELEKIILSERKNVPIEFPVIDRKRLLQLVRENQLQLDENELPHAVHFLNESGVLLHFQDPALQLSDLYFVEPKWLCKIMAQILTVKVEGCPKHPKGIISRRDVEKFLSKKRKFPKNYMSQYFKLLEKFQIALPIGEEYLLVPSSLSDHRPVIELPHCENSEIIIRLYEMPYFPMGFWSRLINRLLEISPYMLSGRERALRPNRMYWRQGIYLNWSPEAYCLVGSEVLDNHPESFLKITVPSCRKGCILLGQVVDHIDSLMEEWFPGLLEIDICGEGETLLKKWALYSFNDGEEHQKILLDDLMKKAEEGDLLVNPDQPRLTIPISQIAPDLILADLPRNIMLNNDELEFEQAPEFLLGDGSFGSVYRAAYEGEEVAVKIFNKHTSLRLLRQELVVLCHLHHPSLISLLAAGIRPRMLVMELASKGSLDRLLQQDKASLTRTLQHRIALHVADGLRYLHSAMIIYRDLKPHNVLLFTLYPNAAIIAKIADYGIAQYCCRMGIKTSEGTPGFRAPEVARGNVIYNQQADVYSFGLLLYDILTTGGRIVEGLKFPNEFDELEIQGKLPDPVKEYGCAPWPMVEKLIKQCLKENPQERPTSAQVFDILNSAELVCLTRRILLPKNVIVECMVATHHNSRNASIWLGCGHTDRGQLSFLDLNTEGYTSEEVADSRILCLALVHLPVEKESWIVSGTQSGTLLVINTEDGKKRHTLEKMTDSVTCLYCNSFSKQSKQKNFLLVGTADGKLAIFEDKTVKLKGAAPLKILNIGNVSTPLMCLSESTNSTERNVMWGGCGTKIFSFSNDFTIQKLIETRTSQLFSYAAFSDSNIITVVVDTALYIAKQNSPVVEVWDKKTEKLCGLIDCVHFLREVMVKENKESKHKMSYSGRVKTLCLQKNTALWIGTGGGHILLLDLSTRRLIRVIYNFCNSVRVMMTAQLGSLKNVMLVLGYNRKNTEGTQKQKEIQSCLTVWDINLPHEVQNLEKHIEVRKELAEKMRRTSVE

Chain of recombinant human wild type LRRK2 (Q5S007 whole entry): as above
Chain of G2019S LRRK2 (Q5S007 whole entry G2019S): as the sequence (Q5S007 whole entry) above, with G2019S counted along it
Chain of mouse LRRK2 (mouse kidney lysate) (Q5S006 1879-2146 limits assumed): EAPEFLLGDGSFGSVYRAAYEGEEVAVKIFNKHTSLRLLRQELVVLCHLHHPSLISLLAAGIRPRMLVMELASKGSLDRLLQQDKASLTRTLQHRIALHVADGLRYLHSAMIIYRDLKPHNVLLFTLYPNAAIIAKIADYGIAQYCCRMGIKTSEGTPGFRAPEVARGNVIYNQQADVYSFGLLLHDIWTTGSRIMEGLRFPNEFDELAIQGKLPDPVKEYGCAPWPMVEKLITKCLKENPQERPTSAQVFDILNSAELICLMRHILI

Compound: COc1cc(N2CCOCC2)ccc1Nc1ncc(F)c(Nc2ccccc2NS(C)(=O)=O)n1 [CZC-25146]
Concentration at which overt cytotoxicity was seen (human cortical neurons): 5000 nM | Concentrations at which no cytotoxicity was caused (human cortical neurons; seven-day treatment in culture): below 5 μM | IC50 [1]: 4.76 nM | IC50 (G2019S LRRK2): 6.87 nM | Brain penetration (Pharmacokinetics studies): ~ 4% | Clearance (Pharmacokinetics studies): 38.3 mL/min/kg | Volume of distribution (Pharmacokinetics studies): 5.4 L/kg | Concentration fully reversing G2019S LRRK2-induced injury to wild-type levels [2]: 8 nM | EC50 [2]: ~4 nM | Block of R1441C-induced toxicity [3]: completely blocked | Block of G2019S LRRK2-induced toxicity ([4]; at higher concentrations): completely blocked | EC50 ([4]; read-out: EC50, attenuation of G2019S LRRK2-induced neuronal injury and death, primary rodent cortical neurons): ~100 nM

Compound: COc1cc(N2CCOCC2)ccc1Nc1ncc(Cl)c(Nc2ccccc2NS(C)(=O)=O)n1 [CZC-54252]
Concentration at which overt cytotoxicity was seen (human cortical neurons): ≥ 1000 nM | IC50 [1]: 1.28 nM | IC50 (G2019S LRRK2): 1.85 nM | Brain penetration (Pharmacokinetics studies): ~ 4% | Concentration fully reversing G2019S LRRK2-induced injury to wild-type levels [2]: 1.6 nM | EC50 [2]: ~1 nM

IC50 in la-S7 binding assay, mouse kidney extracts [5]: no valid IC50s | IC50 in la-S7 binding assay, human K562 extracts [6]: no valid IC50s
Compound: O=C1Nc2ccc(I)cc2/C1=C/c1cc(Br)c(O)c(Br)c1 [GW-5074]
